Where no end group is shown, it is not given here.
Tests used:
Ha3-II = Ha3-II gene expression in HHORSCs (RT-PCR); assay type: cell-based, human; settings: 500 nM, 5 μM, and 50 μM, 24 hours, FIG. 6
Experimental: (§1) The effect of the peptide prepared in Preparation Example 1 above on the activation of human hair outer root sheath cells (HHORSCs) was confirmed by measuring the gene expression of cytokeratin proteins.
(§2) HHORSCs were seeded in a 96-well cell culture plate at a density of 4×10^3 cells/well and cultured for 24 hours under mesenchymal stem cell complete media conditions. Then, the medium was replaced with serum free mesenchymal stem cell medium and cultured for additional 24 hours. The cultured cell culture was treated with 500 nM, 5 μM, and 50 μM of the peptide prepared in Preparation Example 1 above, respectively, and treated with 100 nM of epidermal growth factor (EGF) as a positive control, and negative when not treated with anything to serve as a negative control (con), and these cultures were cultured at 37° C. for 24 hours. After washing each culture with PBS, RNA was isolated by treatment with 300 μL of eaay blue (Intron, South Korea). The isolated RNA was quantified using Nano drop, and then subjected to cDNA synthesis using a cDNA synthesis kit (Enzynomics, South Korea). Then, a PCR reaction was performed using the primers shown in Table 3 below and a PCR premix (Enzynomics, South Korea). The PCR reaction product was electrophoresed on a 1.5% agarose gel, and the bands were detected using the Bio-Rad Gel Image System.

FOXN1 = FOXN1 expression in HHGMCs (RT-PCR); assay type: cell-based, human; settings: 500 nM, 5 μM, and 50 μM, 24 hours, FIG. 7
Experimental: (§3) The effect of the peptide prepared in Preparation Example 1 above on the activation of human hair germinal matrix cells (HHGMCs) was confirmed by measuring the expression of MSX2, Homeobox C13 (HOXC13), and Forkhead Box N1 (FOXN1), which are transcription factors related to cell activation.
as §2, with “HHGMCs” for “HHORSCs”, “6-well” for “96-well”, “4×10^5” for “4×10^3”, “Then, a PCR reaction was performed using the primers shown in Table 3 below and a PCR premix (Enzynomics, South Korea).” left out

Keratin 5 = Keratin 5 gene expression in HHORSCs (RT-PCR); assay type: cell-based, human; settings: 500 nM, 5 μM, and 50 μM, 24 hours, FIG. 6
Experimental: as §1, §2

Keratin 14 = Keratin 14 gene expression in HHORSCs (RT-PCR); assay type: cell-based, human; settings: 500 nM, 5 μM, and 50 μM, 24 hours, FIG. 6
Experimental: as §1, §2

[1] = test system: human hair follicle dermal papilla cells (HHFDPCs); experiment: Proliferation of HHFDPCs (MTT); assay type: cell-based; settings: 500 nM, 5 μM, and 50 μM, 72 hours, absorbance 540 nm, FIG. 1
Experimental: The effect of the peptide prepared in Preparation Example 1 above on the proliferation of human hair follicle dermal papilla cells (HHFDPCs) was tested.
HHFDPCs were seeded in a 96-well cell culture plate at a density of 4×10^3 cells/well and cultured for 24 hours under mesenchymal stem cell complete media conditions. Then, the medium was replaced with serum-free mesenchymal stem cell medium and cultured for additional 24 hours. The cultured cell culture was treated with the peptide prepared in Preparation Example 1 above at 500 nM, 5 μM, and 50 μM, respectively, treated with 1 μM VEGF to serve as a positive control, and not treated with anything to serve as a negative control (con), and these cultures were cultured at 37° C. for additional 72 hours. Thereafter, 10 μL of MTT solution (5 mg/mL) was added thereto, and the mixture was incubated in a CO2 incubator at 37° C. for 4 hours, the medium was removed, and 100 μL of DMSO was added thereto and shaken for 10 minutes. Finally, the absorbance was measured at a wavelength of 540 nm using a spectrophotometer (Molecular Devices (SpectraMax iD3, CA, USA)).

LEF-1 = LEF-1 gene expression in HHFDPCs (RT-PCR); assay type: cell-based, human; settings: 500 nM, 5 μM, and 50 μM, 24 hours, FIG. 4
Experimental: (§4) The effect of the peptide prepared in Preparation Example 1 above on the expression levels of lymphoid enhancer-binding factor 1 (LEF-1), c-Myc, and Cyclin D1, which are downstream genes of beta-catenin, in human hair follicle dermal papilla cells (HHFDPCs) was determined by the RT-PCR method.
(§5) HHFDPCs were seeded in a 6-well cell culture plate at a density of 4×10^5 cells/well and cultured for 24 hours under mesenchymal stem cell complete media conditions. Then, the medium was replaced with serum free mesenchymal stem cell medium and cultured for additional 24 hours. The cultured cell culture was treated with the peptide prepared in Preparation Example 1 above at 500 nM, 5 μM, and 50 μM, respectively, and treated with 10 ng/mL of rhWnt-3a (recombinant human Wnt-3a protein, R&D systems (MN, USA) to serve as a positive control, and not treated with anything to serve as a negative control (con), and each was cultured at 37° C. for additional 24 hours. After washing each culture with PBS, RNA was isolated therefrom by treatment with 300 μL of eaay blue (Intron, South Korea). The isolated RNA was quantified using Nano drop, and then subjected to cDNA synthesis using a cDNA synthesis kit (Enzynomics, South Korea). […] The PCR reaction product was electrophoresed on a 1.5% agarose gel, and the bands were detected using the Bio-Rad Gel Image System.

MSX2 = MSX2 expression in HHGMCs (RT-PCR); assay type: cell-based, human; settings: 500 nM, 5 μM, and 50 μM, 24 hours, FIG. 7
Experimental: as §3
as §2, with “HHGMCs” for “HHORSCs”, “6-well” for “96-well”, “4×10^5” for “4×10^3”, “Then, a PCR reaction was performed using the primers shown in Table 3 below and a PCR premix (Enzynomics, South Korea).” left out

Keratin 19 = Keratin 19 gene expression in HHORSCs (RT-PCR); assay type: cell-based, human; settings: 500 nM, 5 μM, and 50 μM, 24 hours, FIG. 6
Experimental: as §1, §2

[2] = test system: extracellular-regulated kinase (ERK); experiment: ERK phosphorylation in HHFDPCs (Western blot); assay type: cell-based, human; settings: 500 nM, 5 μM, and 50 μM, 24 hours, FIG. 2
Experimental: (§6) The effect of the peptide prepared in Preparation Example 1 above on the activation of proliferation-related signaling molecules in human hair follicle dermal papilla cells (HHFDPCs) was confirmed by Western blot method.
(§7) HHFDPCs were seeded in a 6-well cell culture plate at a density of 4×10^5 cells/well and cultured for 24 hours under mesenchymal stem cell complete media conditions. Then, the medium was replaced with serum-free mesenchymal stem cell medium and cultured for additional 24 hours. The cultured cell culture was treated with the peptide prepared in Preparation Example 1 above at 500 nM, 5 μM, and 50 μM, respectively, 1 μM of Minoxidil (MNX) was treated to serve as a positive control, and not treated with anything to serve as a negative control (con), and the cultures treated with these materials were cultured at 37° C. for additional 24 hours. After washing each culture with PBS, the cells were lysed by treatment with lysis buffer to obtain a cell lysate. Equal amounts of protein samples were prepared by BCA quantification of cell lysates. The prepared protein samples were subjected to electrophoresis using 10% SDS-PAGE. […] The resultant was washed 3 times for 15 minutes each with 0.1% PBS-T (0.1% Tween-20 in PBS), treated with ECL solution (GE Healthcare, USA), and detected with a film.

Cyclin D1 = Cyclin D1 gene expression in HHFDPCs (RT-PCR); assay type: cell-based, human; settings: 500 nM, 5 μM, and 50 μM, 24 hours, FIG. 4
Experimental: as §4, §5

Akt = Akt phosphorylation in HHFDPCs (Western blot); assay type: cell-based, human; settings: 500 nM, 5 μM, and 50 μM, 24 hours, FIG. 2
Experimental: as §6, §7

beta-catenin = experiment: Activation of beta-catenin in HHFDPCs (nuclear protein Western blot); assay type: cell-based, human; settings: 500 nM, 5 μM, and 50 μM, 24 hours, nuclear proteins, FIG. 3
Experimental: The effect of the peptide prepared in Preparation Example 1 above on the activation of beta-catenin in human hair follicle dermal papilla cells (HHFDPCs) was confirmed by Western blot method.
HHFDPCs were seeded in a 6-well cell culture plate at a density of 4×10^5 cells/well and cultured for 24 hours under mesenchymal stem cell complete media conditions. Then, the medium was replaced with serum-free mesenchymal stem cell medium and cultured for additional 24 hours. The cultured cell culture was treated with the peptide prepared in Preparation Example 1 above at 500 nM, 5 μM, and 50 μM, respectively, and treated with 10 ng/mL of rhWnt-3a (recombinant human Wnt-3a protein, R&D systems (MN, USA) to serve as a positive control, and not treated with anything to serve as a negative control (con). The cultures treated with these materials were incubated at 37° C. for additional 24 hours. After washing each culture with PBS, nuclear proteins were isolated using a nuclear protein extraction kit (Thermo scientific, USA), and an equal amount of protein sample was prepared by BCA quantification. The prepared protein samples were subjected to electrophoresis using 10% SDS-PAGE. […] The resultant was washed 3 times for 15 minutes each with 0.1% PBS-T (0.1% Tween-20 in PBS), treated with ECL solution (GE Healthcare, USA), and detected with a film.

HOXC13 = HOXC13 expression in HHGMCs (RT-PCR); assay type: cell-based, human; settings: 500 nM, 5 μM, and 50 μM, 24 hours, FIG. 7
Experimental: as §3
as §2, with “HHGMCs” for “HHORSCs”, “6-well” for “96-well”, “4×10^5” for “4×10^3”, “Then, a PCR reaction was performed using the primers shown in Table 3 below and a PCR premix (Enzynomics, South Korea).” left out

DKK-1 = experiment: Expression of hair loss protein DKK-1 induced by DHT in HHFDPCs (Western blot); assay type: cell-based, human; settings: 500 nM, 5 μM, and 50 μM, DHT 100 nM simultaneously, 24 hours, FIG. 5
Text: It is known that in hair follicles, dihydrotestosterone (DHT) promotes the expression of Dickkopf-1 (DKK-1), and DKK-1 induced by DHT inhibits the proliferation of keratinocytes in hair follicles and causes their apoptosis, thereby promoting hair loss (J of Invest Dermatolo. 2008, February, 128(2), pp. 262-269). The effect of the peptide prepared in Preparation Example 1 above on the expression level of the hair loss-inducing protein DKK-1 in human hair follicle dermal papilla cells (HHFDPCs) was confirmed by Western blot method.
HHFDPCs were seeded in a 6-well cell culture plate at a density of 4×10^5 cells/well and cultured for 24 hours under mesenchymal stem cell complete media conditions. Then, the medium was replaced with serum-free mesenchymal stem cell medium and cultured for additional 24 hours. The cultured cell culture was treated with 500 nM, 5 μM, and 50 μM of the peptide prepared in Preparation Example 1 above, respectively. treated with 5 μM of finasteride to serve as a positive control, and not treated with anything to serve as a negative control group (con). […] Equal amounts of protein samples were prepared by BCA quantification of cell lysates. […] The resultant was washed 3 times for 15 minutes each with 0.1% PBS-T (0.1% Tween-20 in PBS), treated with ECL solution (GE Healthcare, USA), and detected with a film.

c-Myc = c-Myc gene expression in HHFDPCs (RT-PCR); assay type: cell-based, human; settings: 500 nM, 5 μM, and 50 μM, 24 hours, FIG. 4
Experimental: as §4, §5

RHVLKRR [peptide of Preparation Example 1]
expression of Ha3-II (Ha3-II): increasing
expression of FOXN1 (FOXN1): increased
expression of Keratin 5 (Keratin 5): increasing
expression of Keratin 14 (Keratin 14): increasing
proliferation of HHFDPCs compared to the negative control (con) [1]: promoted the proliferation
gene expression of LEF-1 (LEF-1): increased
expression of MSX2 (MSX2): increased
expression of Keratin 19 (Keratin 19): increasing
phosphorylation of extracellular-regulated kinase (ERK) [2]: increased
gene expression of Cyclin D1 (Cyclin D1): increased
phosphorylation of Akt (Akt): increased
beta-catenin activation and movement to the nucleus (beta-catenin): activated and its movement to the nucleus was increased
expression of HOXC13 (HOXC13): increased
expression of DKK-1 induced by DHT treatment (DKK-1): reduced in a concentration-dependent manner
gene expression of c-Myc (c-Myc): increased

Reference: patent US20260139003A1, “PEPTIDE WITH ACTIVITY OF PROMOTING HAIR GROWTH AND INHIBITING HAIR LOSS AND USE THEREOF” (CAREGEN CO., LTD., priority 2022, published 2026)
